# Results published in ChEMBL document CHEMBL5625247, “Tetrahydro-β-carboline derivatives as potent histone deacetylase 6 inhibitors with broad-spectrum antiproliferative activity” (Eur J Med Chem, 2023).
# pIC50: −log10 of the molar value.
# Columns and labels:
# [1] = test system: SNB-75; test: Antiproliferative activity against human SNB-75 cells assessed as cell growth inhibition incubated for 72 hrs by alamar blue dye based assay; type: functional
# [2] = test system: HT-29; test: Antiproliferative activity against human HT-29 cells assessed as cell growth inhibition incubated for 72 hrs by alamar blue dye based assay; type: functional
# [3] = test system: COLO 205; test: Antiproliferative activity against human COLO 205 cells assessed as cell growth inhibition incubated for 72 hrs by alamar blue dye based assay; type: functional
# [4] = test system: RXF 393; test: Antiproliferative activity against human RXF 393 cells assessed as cell growth inhibition incubated for 72 hrs by alamar blue dye based assay; type: functional
# [5] = target: Histone deacetylase 1 (Homo sapiens, UniProt Q13547); test: Inhibition of HDAC1 (unknown origin) expressed in baculovirus infected in Sf9 cells using RHKKAc as substrate preincubated for 5 to 10 mins followed by substrate addition measured after 2 hrs by fluorescence based assay
# [6] = test system: U-251; test: Antiproliferative activity against human U-251 cells assessed as cell growth inhibition incubated for 72 hrs by alamar blue dye based assay; type: functional
# [7] = test system: MDA-MB-468; test: Antiproliferative activity against human MDA-MB-468 cells assessed as cell growth inhibition incubated for 72 hrs by alamar blue dye based assay; type: functional
# [8] = test system: EKVX; test: Antiproliferative activity against human EKVX cells assessed as cell growth inhibition incubated for 72 hrs by alamar blue dye based assay; type: functional
# [9] = test system: UO-31; test: Antiproliferative activity against human UO-31 cells assessed as cell growth inhibition incubated for 72 hrs by alamar blue dye based assay; type: functional
# [10] = test system: SF-295; test: Antiproliferative activity against human SF-295 cells assessed as cell growth inhibition incubated for 72 hrs by alamar blue dye based assay; type: functional
# [11] = test system: OVCAR-3; test: Antiproliferative activity against human OVCAR-3 cells assessed as cell growth inhibition incubated for 72 hrs by alamar blue dye based assay; type: functional
# [12] = test system: RPMI-8226; test: cells; type: functional, cell-based; settings: Homo sapiens; for GI50: RPMI-8226, time 72 hrs
# [13] = test system: NCI-H23; test: Antiproliferative activity against human NCI-H23 cells assessed as cell growth inhibition incubated for 72 hrs by alamar blue dye based assay; type: functional
# [14] = test system: ACHN; test: Antiproliferative activity against human ACHN cells assessed as cell growth inhibition incubated for 72 hrs by alamar blue dye based assay; type: functional
# [15] = test system: BT-549; test: Antiproliferative activity against human BT-549 cells assessed as cell growth inhibition incubated for 72 hrs by alamar blue dye based assay; type: functional
# [16] = test system: 786-0; test: Antiproliferative activity against human 786-0 cells assessed as cell growth inhibition incubated for 72 hrs by alamar blue dye based assay; type: functional
# [17] = test system: MDA-MB-435; test: Antiproliferative activity against human MDA-MB-435 cells assessed as cell growth inhibition incubated for 72 hrs by alamar blue dye based assay; type: functional
# [18] = test system: SNB-19; test: Antiproliferative activity against human SNB-19 cells assessed as cell growth inhibition incubated for 72 hrs by alamar blue dye based assay; type: functional
# [19] = test system: Malme-3M; test: Antiproliferative activity against human Malme-3M cells assessed as cell growth inhibition incubated for 72 hrs by alamar blue dye based assay; type: functional
# [20] = test system: SR; test: Antiproliferative activity against human SR cells assessed as cell growth inhibition incubated for 72 hrs by alamar blue dye based assay; type: functional
# [21] = test system: HOP-62; test: Antiproliferative activity against human HOP-62 cells assessed as cell growth inhibition incubated for 72 hrs by alamar blue dye based assay; type: functional
# [22] = test system: HCT-15; test: Antiproliferative activity against human HCT-15 cells assessed as cell growth inhibition incubated for 72 hrs by alamar blue dye based assay; type: functional
# [23] = test system: UACC-257; test: Antiproliferative activity against human UACC-257 cells assessed as cell growth inhibition incubated for 72 hrs by alamar blue dye based assay; type: functional
# [24] = test system: SK-MEL-5; test: Antiproliferative activity against human SK-MEL-5 cells assessed as cell growth inhibition incubated for 72 hrs by alamar blue dye based assay; type: functional
# [25] = test system: UACC-62; test: Antiproliferative activity against human UACC-62 cells assessed as cell growth inhibition incubated for 72 hrs by alamar blue dye based assay; type: functional
# [26] = test system: DU-145; test: Antiproliferative activity against human DU-145 cells assessed as cell growth inhibition incubated for 72 hrs by alamar blue dye based assay; type: functional
# [27] = test system: NCI-H226; test: Antiproliferative activity against human NCI-H226 cells assessed as cell growth inhibition incubated for 72 hrs by alamar blue dye based assay; type: functional
# [28] = test system: CCRF-CEM; test: Antiproliferative activity against human CCRF-CEM cells assessed as cell growth inhibition incubated for 72 hrs by alamar blue dye based assay; type: functional
# [29] = test system: MCF7; test: Antiproliferative activity against human MCF7 cells assessed as cell growth inhibition incubated for 72 hrs by alamar blue dye based assay; type: functional
# [30] = test system: NCI-H460; test: Antiproliferative activity against human NCI-H460 cells assessed as cell growth inhibition incubated for 72 hrs by alamar blue dye based assay; type: functional
# [31] = test system: MOLT-4; test: Antiproliferative activity against human MOLT-4 cells assessed as cell growth inhibition incubated for 72 hrs by alamar blue dye based assay; type: functional
# [32] = test system: OVCAR-8; test: Antiproliferative activity against human OVCAR-8 cells assessed as cell growth inhibition incubated for 72 hrs by alamar blue dye based assay; type: functional
# [33] = test system: SW-620; test: Antiproliferative activity against human SW620 cells assessed as cell growth inhibition incubated for 72 hrs by alamar blue dye based assay; type: functional
# [34] = test system: T47D; test: Antiproliferative activity against human T47D cells assessed as cell growth inhibition incubated for 72 hrs by alamar blue dye based assay; type: functional
# [35] = test system: HCC 2998; test: Antiproliferative activity against human HCC 2998 cells assessed as cell growth inhibition incubated for 72 hrs by alamar blue dye based assay; type: functional
# [36] = test system: LOX IMVI; test: Antiproliferative activity against human LOX IMVI cells assessed as cell growth inhibition incubated for 72 hrs by alamar blue dye based assay; type: functional
# [37] = test system: SF-268; test: Antiproliferative activity against human SF-268 cells assessed as cell growth inhibition incubated for 72 hrs by alamar blue dye based assay; type: functional
# [38] = test system: IGROV-1; test: Antiproliferative activity against human IGROV-1 cells assessed as cell growth inhibition incubated for 72 hrs by alamar blue dye based assay; type: functional
# [39] = test system: SK-MEL-28; test: Antiproliferative activity against human SK-MEL-28 cells assessed as cell growth inhibition incubated for 72 hrs by alamar blue dye based assay; type: functional
# [40] = test system: SK-OV-3; test: Antiproliferative activity against human SK-OV-3 cells assessed as cell growth inhibition incubated for 72 hrs by alamar blue dye based assay; type: functional
# [41] = test system: OVCAR-4; test: Antiproliferative activity against human OVCAR-4 cells assessed as cell growth inhibition incubated for 72 hrs by alamar blue dye based assay; type: functional
# [42] = test system: NCI-H322M; test: Antiproliferative activity against human NCI-H322M cells assessed as cell growth inhibition incubated for 72 hrs by alamar blue dye based assay; type: functional
# [43] = test system: NCI/ADR-RES; test: Antiproliferative activity against human NCI-ADR-RES cells assessed as cell growth inhibition incubated for 72 hrs by alamar blue dye based assay; type: functional
# [44] = test system: TK-10; test: Antiproliferative activity against human TK-10 cells assessed as cell growth inhibition incubated for 72 hrs by alamar blue dye based assay; type: functional
# [45] = test system: Hs-578T; test: Antiproliferative activity against human Hs-578T cells assessed as cell growth inhibition incubated for 72 hrs by alamar blue dye based assay; type: functional
# [46] = test system: M14; test: Antiproliferative activity against human M14 cells assessed as cell growth inhibition incubated for 72 hrs by alamar blue dye based assay; type: functional
# Sequence of Histone deacetylase 1 (Q13547 whole entry): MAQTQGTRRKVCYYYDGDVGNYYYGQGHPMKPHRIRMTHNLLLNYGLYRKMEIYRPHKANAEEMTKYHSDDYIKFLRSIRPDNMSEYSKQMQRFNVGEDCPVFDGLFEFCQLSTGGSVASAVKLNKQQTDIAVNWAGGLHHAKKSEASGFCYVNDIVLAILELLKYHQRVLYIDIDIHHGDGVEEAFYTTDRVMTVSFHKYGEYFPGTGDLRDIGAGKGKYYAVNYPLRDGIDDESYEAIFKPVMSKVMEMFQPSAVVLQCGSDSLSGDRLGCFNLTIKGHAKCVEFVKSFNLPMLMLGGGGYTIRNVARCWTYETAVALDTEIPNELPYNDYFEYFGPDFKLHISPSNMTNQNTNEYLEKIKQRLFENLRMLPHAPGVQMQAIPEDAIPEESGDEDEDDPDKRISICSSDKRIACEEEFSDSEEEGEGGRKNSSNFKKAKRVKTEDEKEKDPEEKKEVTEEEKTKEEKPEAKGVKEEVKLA
smiles,measurement,setting,value
COc1ccc(CN2[C@@H](C(=O)NCc3ccc(C(=O)NO)cc3)Cc3c([nH]c4ccccc34)[C@@H]2C2CC2)cc1,GI50,[1],1130 nM
same,GI50,[2],4840 nM
same,GI50,[3],3470 nM
same,GI50,[4],797 nM
same,pIC50,[5],6.77
same,GI50,[6],2660 nM
same,GI50,[7],1000 nM
same,GI50,[8],3200 nM
same,GI50,[9],3000 nM
same,GI50,[10],2920 nM
same,GI50,[11],3410 nM
same,GI50,[12],2920 nM
same,GI50,[13],2750 nM
same,GI50,[14],3520 nM
same,GI50,[15],4990 nM
same,GI50,[16],3980 nM
same,GI50,[17],638 nM
same,GI50,[18],2890 nM
same,GI50,[19],847 nM
same,GI50,[20],> 19800 nM
same,GI50,[21],3480 nM
same,GI50,[22],3750 nM
same,GI50,[23],2390 nM
same,GI50,[24],2600 nM
same,GI50,[25],1550 nM
same,GI50,[26],4380 nM
same,GI50,[27],3410 nM
same,GI50,[28],996 nM
same,GI50,[29],2330 nM
same,GI50,[30],3140 nM
same,GI50,[31],1850 nM
same,GI50,[32],2560 nM
same,GI50,[33],2260 nM
same,GI50,[34],3820 nM
same,GI50,[35],2600 nM
same,GI50,[36],2370 nM
same,GI50,[37],4400 nM
same,GI50,[38],2600 nM
same,GI50,[39],1980 nM
same,GI50,[40],2870 nM
same,GI50,[41],4740 nM
same,GI50,[42],4250 nM
same,GI50,[43],4050 nM
same,GI50,[44],3170 nM
same,GI50,[45],1850 nM
same,GI50,[46],4070 nM
O=C(NO)c1ccc(CNC(=O)[C@H]2Cc3c([nH]c4ccccc34)[C@H](c3ccc(Cl)cc3)N2)cc1,GI50,[1],2260 nM
same,GI50,[2],838 nM
same,GI50,[3],719 nM
same,GI50,[4],455 nM
same,pIC50,[5],7.21
same,GI50,[6],1210 nM
same,GI50,[7],380 nM
same,GI50,[8],2650 nM
same,GI50,[9],2640 nM
same,GI50,[10],1810 nM
same,GI50,[11],1230 nM
same,pIC50,"[12]; RPMI-8226, 72 h",6.21
same,GI50,[12],564 nM
same,GI50,[13],1330 nM
same,GI50,[14],3050 nM
same,GI50,[15],4930 nM
same,GI50,[16],3710 nM
same,GI50,[17],959 nM
same,GI50,[18],2260 nM
same,GI50,[19],410 nM
same,GI50,[20],1150 nM
same,GI50,[21],1270 nM
same,GI50,[22],4260 nM
same,GI50,[23],1230 nM
same,GI50,[24],721 nM
same,GI50,[25],538 nM
same,GI50,[26],1080 nM
same,GI50,[27],2270 nM
same,GI50,[28],617 nM
same,GI50,[29],874 nM
same,GI50,[30],1020 nM
same,GI50,[31],563 nM
same,GI50,[32],942 nM
same,GI50,[33],687 nM
same,GI50,[34],600 nM
same,GI50,[35],605 nM
same,GI50,[36],1090 nM
same,GI50,[37],2920 nM
same,GI50,[38],1200 nM
same,GI50,[39],878 nM
same,GI50,[40],2010 nM
same,GI50,[41],3730 nM
same,GI50,[42],1620 nM
same,GI50,[43],3350 nM
same,GI50,[44],1510 nM
same,GI50,[45],1010 nM
same,GI50,[46],2200 nM
